Measured values reported in PubChem BioAssay AID1845213 (Molecular Pharmacology Branch, DTP, NCI, 2023).
pIC50: −log10 of the molar value. The source made the active and inactive calls. Rule for the calls: active = viability on the fitted dose curve at most 10% of control; inactive = the rest.

Test system: NCI-H841 complex tumor spheroid viability
Test: Anticancer human tumor NCI-H841 cell line growth inhibition;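 for pIC50: spheroids exposed to compounds for 7 days before readout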;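 for viability, T/C: spheroids exposed to compounds for 7 days before readout; 100% = DMSO vehicle control wells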
Details: for pIC50: curve of first compound; for viability, T/C: stronger effect = lower value
Method in brief: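 Complex spheroids of malignant cells with endothelial cells and mesenchymal stem cells; agents alone or combined, from near clinical Cmax (or 10 microM if unknown) down in half-log steps, 0.25% DMSO final.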

[1] = second compound 1 µM, first compound 0.0316 µM
[2] = second compound 1 µM, first compound 0.1 µM
[3] = second compound 1 µM, first compound 0.316 µM
[4] = second compound 1 µM, first compound 1 µM
[5] = second compound 1 µM, first compound 3.16 µM
[6] = second compound 1 µM, first compound 10 µM
[7] = second compound 3.16 µM, first compound 0.0316 µM
[8] = second compound 3.16 µM, first compound 0.1 µM
[9] = second compound 3.16 µM, first compound 0.316 µM
[10] = second compound 3.16 µM, first compound 1 µM
[11] = second compound 3.16 µM, first compound 3.16 µM
[12] = second compound 3.16 µM, first compound 10 µM
[13] = second compound 10 µM, first compound 0.0316 µM
[14] = second compound 10 µM, first compound 0.1 µM
[15] = second compound 10 µM, first compound 0.316 µM
[16] = second compound 10 µM, first compound 1 µM
[17] = second compound 10 µM, first compound 3.16 µM
[18] = second compound 10 µM, first compound 10 µM
[19] = second compound 31.6 µM, first compound 0.0316 µM
[20] = second compound 31.6 µM, first compound 0.1 µM
[21] = second compound 31.6 µM, first compound 0.316 µM
[22] = second compound 31.6 µM, first compound 1 µM
[23] = second compound 31.6 µM, first compound 3.16 µM
[24] = second compound 31.6 µM, first compound 10 µM
[25] = second compound 100 µM, first compound 0.0316 µM
[26] = second compound 100 µM, first compound 0.1 µM
[27] = second compound 100 µM, first compound 0.316 µM
[28] = second compound 100 µM, first compound 1 µM
[29] = second compound 100 µM, first compound 3.16 µM
[30] = second compound 100 µM, first compound 10 µM

CC1COCCN1c1cc(-c2ccnn2C)c2ccnc(-c3ccn[nH]3)c2n1 (stereo not given) + Cn1nnc2c(C(N)=O)ncn2c1=O
7.44: pIC50 (second compound 10 µM)
active: viability, T/C [3] 8.33% | viability, T/C [4] 2.75% | viability, T/C [5] 1.79% | viability, T/C [6] 1.91% | viability, T/C [9] 5.48% | viability, T/C [10] 2.34% | viability, T/C [11] 1.67% | viability, T/C [12] 1.99% | viability, T/C [15] 6.12% | viability, T/C [16] 2.58% | viability, T/C [17] 1.4% | viability, T/C [18] 1.82% | viability, T/C [21] 4.22% | viability, T/C [22] 1.97% | viability, T/C [23] 1.42% | viability, T/C [24] 1.66% | viability, T/C [26] 6.68% | viability, T/C [27] 1.75% | viability, T/C [28] 2.09% | viability, T/C [29] 2.84% | viability, T/C [30] 1.47%
inactive: viability, T/C [1] 66% | viability, T/C [2] 24.1% | outcome [7] | viability, T/C [8] 20.8% | viability, T/C [13] 55.4% | viability, T/C [14] 12.6% | viability, T/C [19] 56% | viability, T/C [20] 12.1% | viability, T/C [25] 23.6%
7.42: pIC50 (second compound 3.16 µM)
7.31: pIC50 (second compound 1 µM)
7.43: pIC50 (second compound 31.6 µM)
> 7.50: pIC50 (second compound 100 µM)

COc1cc(C)[nH]c(=O)c1CN1CCc2c(Cl)cc(C(OC)C3COC3)c(Cl)c2C1=O (stereo not given) + Cn1nnc2c(C(N)=O)ncn2c1=O
6.37: pIC50 (second compound 31.6 µM)
6.44: pIC50 (second compound 10 µM)
6.26: pIC50 (second compound 3.16 µM)
inactive: viability, T/C [1] 79.7% | viability, T/C [2] 67.1% | viability, T/C [3] 48.4% | viability, T/C [4] 45.4% | viability, T/C [5] 33.9% | viability, T/C [6] 31.3% | viability, T/C [7] 85% | viability, T/C [8] 63.5% | viability, T/C [9] 54.5% | viability, T/C [10] 47.8% | viability, T/C [11] 38.5% | viability, T/C [12] 32.8% | viability, T/C [13] 86% | viability, T/C [14] 67% | viability, T/C [15] 50.6% | viability, T/C [16] 41.1% | viability, T/C [17] 35.9% | viability, T/C [18] 30.9% | viability, T/C [19] 83.9% | viability, T/C [20] 70.3% | viability, T/C [21] 49.8% | viability, T/C [22] 41.8% | viability, T/C [23] 36.9% | viability, T/C [24] 27% | viability, T/C [25] 87.3% | viability, T/C [26] 77.6% | viability, T/C [27] 51.2% | viability, T/C [28] 39.9% | viability, T/C [29] 36.5% | viability, T/C [30] 30.8%
6.40: pIC50 (second compound 1 µM) | pIC50 (second compound 100 µM)

COc1ccc([C@@H](O)c2cc(-c3ncnc4cc(N5CCOCC5)ccc34)c(F)cc2Cl)nn1 + Cn1nnc2c(C(N)=O)ncn2c1=O
5.70: pIC50 (second compound 3.16 µM)
5.74: pIC50 (second compound 100 µM)
5.64: pIC50 (second compound 31.6 µM)
active: viability, T/C [6] 7.89% | viability, T/C [12] 8.99% | viability, T/C [18] 9.08% | viability, T/C [24] 8.74% | viability, T/C [30] 7.13%
5.69: pIC50 (second compound 1 µM) | pIC50 (second compound 10 µM)
inactive: viability, T/C [1] 100% | viability, T/C [2] 99.1% | viability, T/C [3] 92.7% | outcome [4] | viability, T/C [5] 36% | viability, T/C [7] 102% | viability, T/C [8] 104% | viability, T/C [9] 97.1% | viability, T/C [10] 70.7% | viability, T/C [11] 36.4% | viability, T/C [13] 103% | viability, T/C [14] 105% | viability, T/C [15] 91% | viability, T/C [16] 80.1% | viability, T/C [17] 32.1% | viability, T/C [19] 97.5% | viability, T/C [20] 99.7% | viability, T/C [21] 95.3% | viability, T/C [22] 79.3% | viability, T/C [23] 38.1% | viability, T/C [25] 97.5% | viability, T/C [26] 100% | viability, T/C [27] 87% | viability, T/C [28] 71% | viability, T/C [29] 31.5%

Cc1cc(C)c(CNC(=O)c2cc(-c3ccc(CN4CCOCC4)cc3)cc3c2cnn3C2CCCC2)c(=O)[nH]1 + Cn1nnc2c(C(N)=O)ncn2c1=O
5.01: pIC50 (second compound 31.6 µM)
inactive: viability, T/C [1] 101% | viability, T/C [2] 102% | viability, T/C [3] 97.2% | viability, T/C [4] 94.6% | viability, T/C [5] 78.9% | viability, T/C [6] 40.1% | viability, T/C [7] 101% | viability, T/C [8] 105% | viability, T/C [9] 102% | viability, T/C [10] 97.4% | viability, T/C [11] 85.2% | viability, T/C [12] 56.3% | viability, T/C [13] 103% | viability, T/C [14] 108% | viability, T/C [15] 105% | viability, T/C [16] 94.9% | viability, T/C [17] 87.2% | viability, T/C [18] 52.5% | outcome [19] | viability, T/C [20] 101% | viability, T/C [21] 97.6% | viability, T/C [22] 103% | viability, T/C [23] 83% | viability, T/C [24] 49.2% | viability, T/C [25] 98.3% | viability, T/C [26] 99.2% | viability, T/C [27] 95.8% | viability, T/C [28] 97.6% | viability, T/C [29] 77.6% | viability, T/C [30] 41.7%
5.11: pIC50 (second compound 100 µM)
< 5.00: pIC50 (second compound 3.16 µM) | pIC50 (second compound 10 µM)
5.12: pIC50 (second compound 1 µM)

Cc1sc2c(c1C)C(c1ccc(Cl)cc1)=NC(CC(=O)Nc1ccc(O)cc1)c1nnc(C)n1-2 (stereo not given) + Cn1nnc2c(C(N)=O)ncn2c1=O
6.57: pIC50 (second compound 100 µM)
inactive: viability, T/C (second compound 1 µM, first compound 0.00949 µM) 98.5% | viability, T/C (second compound 1 µM, first compound 0.03 µM) 101% | viability, T/C (second compound 1 µM, first compound 0.0949 µM) 74.8% | viability, T/C (second compound 1 µM, first compound 0.3 µM) 59.8% | viability, T/C (second compound 1 µM, first compound 0.949 µM) 24.3% | viability, T/C (second compound 3.16 µM, first compound 0.00949 µM) 105% | viability, T/C (second compound 3.16 µM, first compound 0.03 µM) 98% | viability, T/C (second compound 3.16 µM, first compound 0.0949 µM) 88.9% | viability, T/C (second compound 3.16 µM, first compound 0.3 µM) 59.1% | viability, T/C (second compound 3.16 µM, first compound 0.949 µM) 24.7% | viability, T/C (second compound 10 µM, first compound 0.00949 µM) 102% | outcome (second compound 10 µM, first compound 0.03 µM) | viability, T/C (second compound 10 µM, first compound 0.0949 µM) 87.8% | viability, T/C (second compound 10 µM, first compound 0.3 µM) 61.5% | viability, T/C (second compound 10 µM, first compound 0.949 µM) 14.4% | viability, T/C (second compound 31.6 µM, first compound 0.00949 µM) 102% | viability, T/C (second compound 31.6 µM, first compound 0.03 µM) 98.2% | outcome (second compound 31.6 µM, first compound 0.0949 µM) | viability, T/C (second compound 31.6 µM, first compound 0.3 µM) 57.3% | viability, T/C (second compound 31.6 µM, first compound 0.949 µM) 12.6% | viability, T/C (second compound 100 µM, first compound 0.00949 µM) 101% | viability, T/C (second compound 100 µM, first compound 0.03 µM) 99.8% | viability, T/C (second compound 100 µM, first compound 0.0949 µM) 82.6% | viability, T/C (second compound 100 µM, first compound 0.3 µM) 49%
6.39: pIC50 (second compound 3.16 µM)
active: viability, T/C (second compound 1 µM, first compound 3 µM) 6.54% | viability, T/C (second compound 3.16 µM, first compound 3 µM) 5.5% | viability, T/C (second compound 10 µM, first compound 3 µM) 4.47% | viability, T/C (second compound 31.6 µM, first compound 3 µM) 2.27% | viability, T/C (second compound 100 µM, first compound 0.949 µM) 5.34% | viability, T/C (second compound 100 µM, first compound 3 µM) 1.69%
6.42: pIC50 (second compound 10 µM)
6.44: pIC50 (second compound 31.6 µM)
6.43: pIC50 (second compound 1 µM)

[2H]c1nc(C)nc([2H])c1-c1cc(NC[C@@H](C)c2cccc3c(C(=O)NC)ccnc23)ncn1 + Cn1nnc2c(C(N)=O)ncn2c1=O
< 5.00: pIC50 (second compound 1 µM) | pIC50 (second compound 3.16 µM) | pIC50 (second compound 10 µM) | pIC50 (second compound 31.6 µM) | pIC50 (second compound 100 µM)
inactive: viability, T/C [1] 98% | viability, T/C [2] 97.6% | viability, T/C [3] 94.8% | viability, T/C [4] 95% | viability, T/C [5] 93.2% | viability, T/C [6] 91.4% | viability, T/C [7] 98.8% | viability, T/C [8] 99.8% | viability, T/C [9] 101% | viability, T/C [10] 101% | viability, T/C [11] 95% | viability, T/C [12] 99.3% | viability, T/C [13] 99.6% | viability, T/C [14] 99.8% | viability, T/C [15] 97.7% | viability, T/C [16] 101% | viability, T/C [17] 98.9% | viability, T/C [18] 96.5% | viability, T/C [19] 97% | viability, T/C [20] 97.7% | viability, T/C [21] 100% | viability, T/C [22] 98% | viability, T/C [23] 97.4% | outcome [24] | viability, T/C [25] 93.4% | viability, T/C [26] 95.7% | viability, T/C [27] 92.5% | viability, T/C [28] 95.9% | viability, T/C [29] 95.8% | viability, T/C [30] 91.2%
